Data reported in patent publication US20100256048A1, “POLYPEPTIDE COMPOUND” (Astellas Pharma Inc., priority 2007, published 2010).

Columns and labels:
A. fumigatus 20030 = experiment: Mouse respiratory infection model; type: in vivo, Aspergillus fumigatus; details: male ICR mice given cyclophosphamide, compound intravenously, lives and deaths observed over 10 days
Description: Effect to Mouse Respiratory Infection Model
4-week old male ICR mice were used so as to be eight mice in a group. 200 mg/kg of cyclophosphamide is intraperitoneally administered into mice at 4 days before infection and 1 day after infection. Conidium liquid (0.05 mL: approximately 2.2×10^6) of A. fumigatus 20030 suspended in physiological saline was inoculated from respiratory passages of mice to cause respiratory infection. The compound was administered intravenously for 2 hours to 4 days after the infection. The lives and deaths of the mice were observed over a 10 day period starting from the next day.

[1] = tested on: A. fumigatus (Aspergillus fumigatus); experiment: MIC in human serum by microdilution, A. fumigatus; type: cell-based; details: human serum buffered with 20 mM HEPES pH 7.3; 37° C., 24 hours, 5% CO2; geometric mean of three clinical cell lines; growth sufficiently inhibited versus growth control
Description: (§1) Measurement of Susceptibility to C. albicans (Candida albicans) and A. fumigatus (Aspergillus fumigatus) By the microdilution method where human serum buffered with 20 mM-HEPES buffer (pH 7.3) was used as a test medium, MIC (minimum inhibitory concentration) in human serum was determined. The inoculum suspension of 10^6 cells/mL was prepared by a hemocytometric procedure to obtain an inoculum size of approximately 5×10^3 to 2×10^4cells/mL. Microplates were incubated at 37° C. for 24 hours under 5% CO2 atmosphere. […] The values were shown as geometric mean of MIC with reference to three of clinical cell lines.

[2] = tested on: C. albicans (Candida albicans); experiment: MIC in human serum by microdilution, C. albicans; type: cell-based; details: human serum buffered with 20 mM HEPES pH 7.3; 37° C., 24 hours, 5% CO2; geometric mean of three clinical cell lines; growth completely inhibited
Description: as §1

SMILES | Infection experiments ED50 A. fumigatus (A. fumigatus 20030) [mg/kg] | MIC (mean of three cell lines) A. fumigatus [1] [µg/mL] | MIC (mean of three cell lines) C. albicans [2] [µg/mL]
COc1cc(C[C@@H](O)[C@@H]2NC(=O)[C@@H]3C[C@@H](O)CN3C(=O)[C@H]([C@@H](C)O)NC(=O)[C@@H](NC[C@H]3CC[C@H](c4nnc(-c5ccc(N6CCC(OC)(C7CCCCC7)CC6)cc5)s4)CC3)C[C@@H](O)CNC(=O)[C@@H]3[C@@H](O)[C@@H](C)CN3C(=O)[C@H]([C@H](O)CCN)NC2=O)ccc1O [Ex 1] | <0.3 |  | 
COc1cc(C[C@@H](O)[C@@H]2NC(=O)[C@@H]3C[C@@H](O)CN3C(=O)[C@H]([C@@H](C)O)NC(=O)[C@@H](NC[C@H]3CC[C@H](c4nnc(-c5ccc(N6CCC(OC)(C7CCCCC7)CC6)cc5)s4)CC3)C[C@@H](O)CNC(=O)[C@@H]3[C@@H](O)[C@@H](C)CN3C(=O)[C@H]([C@H](O)CCNC(CO)CO)NC2=O)ccc1O [Ex 6] | 0.44 |  | 
C[C@@H](O)[C@@H]1NC(=O)[C@@H](NCC2CCN(c3nnc(-c4ccc(-c5cnc(N6CCC(OC7CCCCC7)CC6)nc5)cc4)s3)CC2)C[C@@H](O)CNC(=O)[C@@H]2[C@@H](O)[C@@H](C)CN2C(=O)[C@H]([C@H](O)CC(=O)NCCN)NC(=O)[C@H]([C@H](O)Cc2ccc(O)c(OS(=O)(=O)O)c2)NC(=O)[C@@H]2C[C@@H](O)CN2C1=O [Ex 30] |  | 0.32 | 0.4
C[C@@H](O)[C@@H]1NC(=O)[C@@H](NC[C@H]2CC[C@H](c3nnc(-c4ccc(N5CCC(OC6CCCCC6)CC5)cc4)s3)CC2)C[C@@H](O)CNC(=O)[C@@H]2[C@@H](O)[C@@H](C)CN2C(=O)[C@H]([C@H](O)CCNC(CO)CO)NC(=O)[C@H]([C@H](O)Cc2ccc(O)c(OS(=O)(=O)O)c2)NC(=O)[C@@H]2C[C@@H](O)CN2C1=O [Ex 33] | 0.39 |  | 
